According to ChEMBL document CHEMBL1139224, “Discovery and metabolic stabilization of potent and selective 2-amino-N-(adamant-2-yl) acetamide 11beta-hydroxysteroid dehydrogenase type 1 inhibitors” (J Med Chem, 2007):

Tests used:
[1] = molecular target: T1, 11-beta-hydroxysteroid dehydrogenase 1 (Homo sapiens, UniProt P28845); assay: Inhibition of human 11beta-HSD1 expressed in HEK293 cells by FPIA; assay type: cell-based
[2] = molecular target: 11-beta-hydroxysteroid dehydrogenase 1 (Mus musculus, UniProt P50172); assay: Inhibition of mouse 11beta-HSD1 expressed in Escherichia coli by SPA
Chain of 11-beta-hydroxysteroid dehydrogenase 1 (Mus musculus, UniProt P50172) (P50172 whole entry): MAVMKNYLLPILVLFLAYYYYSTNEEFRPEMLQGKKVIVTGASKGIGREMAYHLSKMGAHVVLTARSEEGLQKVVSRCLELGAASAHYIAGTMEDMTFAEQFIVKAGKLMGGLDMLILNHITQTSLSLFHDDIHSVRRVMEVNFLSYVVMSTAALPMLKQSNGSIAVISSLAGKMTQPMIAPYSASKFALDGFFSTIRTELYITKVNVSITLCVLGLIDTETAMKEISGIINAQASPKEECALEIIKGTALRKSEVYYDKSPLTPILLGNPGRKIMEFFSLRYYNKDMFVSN

[3] = Intrinsic clearance in human liver microsomes at 1 uM; assay type: ADME, Microsome
[4] = molecular target: T1, 11-beta-hydroxysteroid dehydrogenase 1; assay: Inhibition of human 11beta-HSD1 expressed in Escherichia coli by SPA
[5] = molecular target: T2, 11-beta-hydroxysteroid dehydrogenase type 2 (Homo sapiens, UniProt P80365); assay: Inhibitory activity against human 11beta-HSD2 by SPA
T2 sequence (P80365 whole entry): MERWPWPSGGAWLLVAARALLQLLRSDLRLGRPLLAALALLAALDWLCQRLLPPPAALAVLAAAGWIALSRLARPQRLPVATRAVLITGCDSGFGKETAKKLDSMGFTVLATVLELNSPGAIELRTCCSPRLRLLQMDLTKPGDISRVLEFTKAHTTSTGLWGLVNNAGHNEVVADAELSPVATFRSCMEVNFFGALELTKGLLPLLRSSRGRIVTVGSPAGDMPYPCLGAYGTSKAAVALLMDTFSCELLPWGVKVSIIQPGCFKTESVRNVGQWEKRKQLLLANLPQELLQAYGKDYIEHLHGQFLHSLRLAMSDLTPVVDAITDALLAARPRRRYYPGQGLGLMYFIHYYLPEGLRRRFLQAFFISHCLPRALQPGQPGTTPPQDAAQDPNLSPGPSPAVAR

[6] = molecular target: T3, 11-beta-hydroxysteroid dehydrogenase type 2 (Mus musculus, UniProt P51661); assay: Inhibitory activity against mouse 11beta-HSD2 by SPA
T3 sequence (P51661 whole entry): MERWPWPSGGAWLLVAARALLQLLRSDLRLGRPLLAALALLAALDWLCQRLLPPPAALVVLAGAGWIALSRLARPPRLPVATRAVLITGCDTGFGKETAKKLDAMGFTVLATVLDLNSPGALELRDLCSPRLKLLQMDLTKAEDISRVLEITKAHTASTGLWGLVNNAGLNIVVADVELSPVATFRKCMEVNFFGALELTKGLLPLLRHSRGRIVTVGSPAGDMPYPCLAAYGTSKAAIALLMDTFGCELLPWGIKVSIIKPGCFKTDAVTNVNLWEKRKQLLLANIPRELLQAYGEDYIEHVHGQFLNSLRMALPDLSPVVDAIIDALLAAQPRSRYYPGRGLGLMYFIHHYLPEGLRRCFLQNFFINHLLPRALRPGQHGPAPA

[7] = Intrinsic clearance in mouse liver microsomes at 1 uM; assay type: ADME, Microsome
[8] = Volume of distribution in mouse at 10 mg/kg, iv; assay type: ADME, organism-based; parameters: dose 10 mg/kg, route intravenous; conditions: in vivo, read-out: Vdss
[9] = Half life in mouse at 10 mg/kg, iv; assay type: ADME, organism-based; parameters: dose 10 mg/kg, route intravenous; conditions: in vivo
[10] = Plasma clearance in mouse at 10 mg/kg, iv; assay type: ADME, organism-based; parameters: dose 10 mg/kg, route intravenous
Mus musculus = assay: AUC in mouse at 10 mg/kg, po; assay type: ADME, organism-based, Plasma; parameters: dose 10 mg/kg, route oral; conditions: in vivo
[11] = Intrinsic clearance in rat liver microsomes at 1 uM; assay type: ADME, Microsome
[12] = molecular target: 11-beta-hydroxysteroid dehydrogenase 1 (Rattus norvegicus, UniProt P16232); assay: Inhibitory activity against rat 11beta-HSD1
Chain of 11-beta-hydroxysteroid dehydrogenase 1 (Rattus norvegicus, UniProt P16232) (P16232 whole entry): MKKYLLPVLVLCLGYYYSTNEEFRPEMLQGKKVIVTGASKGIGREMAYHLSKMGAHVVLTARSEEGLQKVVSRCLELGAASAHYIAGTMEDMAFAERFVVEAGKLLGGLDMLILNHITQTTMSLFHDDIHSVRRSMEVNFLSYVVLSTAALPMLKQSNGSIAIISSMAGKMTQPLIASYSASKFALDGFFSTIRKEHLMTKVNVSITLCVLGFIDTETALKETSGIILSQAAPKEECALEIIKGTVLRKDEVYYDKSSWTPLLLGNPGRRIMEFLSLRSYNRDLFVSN

[13] = Oral bioavailability in mouse at 10 mg/kg, po; assay type: ADME, organism-based; conditions: in vivo
[14] = Half life in mouse at 10 mg/kg, po; assay type: ADME, organism-based; parameters: dose 10 mg/kg, route oral; conditions: in vivo
[15] = molecular target: T4, 11-beta-hydroxysteroid dehydrogenase type 2 (Rattus norvegicus, UniProt P50233); assay: Inhibitory activity against rat 11beta-HSD2
T4 sequence (P50233 whole entry): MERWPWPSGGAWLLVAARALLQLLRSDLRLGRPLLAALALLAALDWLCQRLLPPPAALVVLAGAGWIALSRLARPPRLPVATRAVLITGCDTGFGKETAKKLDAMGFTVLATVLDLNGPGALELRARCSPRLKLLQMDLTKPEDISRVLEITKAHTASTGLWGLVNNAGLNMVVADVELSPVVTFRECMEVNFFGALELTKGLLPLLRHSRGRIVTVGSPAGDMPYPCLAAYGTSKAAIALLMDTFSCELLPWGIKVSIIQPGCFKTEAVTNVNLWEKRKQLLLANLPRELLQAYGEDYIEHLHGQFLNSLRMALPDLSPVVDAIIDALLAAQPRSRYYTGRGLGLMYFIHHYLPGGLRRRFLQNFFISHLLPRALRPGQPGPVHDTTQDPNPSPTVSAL

[16] = Volume of distribution in rat at 5 mg/kg, iv; assay type: ADME, organism-based; parameters: dose 5 mg/kg, route intravenous; conditions: in vivo, read-out: Vss
[17] = Half life in rat at 5 mg/kg, po; assay type: ADME, organism-based; parameters: dose 5 mg/kg, route oral; conditions: in vivo
[18] = Plasma clearance in rat at 5 mg/kg, iv; assay type: ADME, organism-based; parameters: dose 5 mg/kg, route intravenous
[19] = Oral bioavailability in rat at 5 mg/kg, po; assay type: ADME, organism-based; conditions: in vivo
Rattus norvegicus = assay: Area under the curve in rat at 5 mg/kg, po; assay type: ADME, organism-based; parameters: dose 5 mg/kg, route oral; conditions: in vivo
[20] = Half life in rat at 5 mg/kg, iv; assay type: ADME, organism-based; parameters: dose 5 mg/kg, route intravenous; conditions: in vivo
[21] = molecular target: 11-beta-hydroxysteroid dehydrogenase 1 (Mus musculus) (UniProt P50172); assay: Inhibition of mouse 11beta-HSD1 in DIO mouse adipose tissue at 30 mg/kg, po after 1 hr; assay type: organism-based; parameters: dose 30 mg/kg
Chain of 11-beta-hydroxysteroid dehydrogenase 1 (Mus musculus) (P50172 whole entry, looked up): as the sequence (P50172 whole entry) above

[22] = molecular target: 11-beta-hydroxysteroid dehydrogenase 1 (Mus musculus) (UniProt P50172); assay: Inhibition of mouse 11beta-HSD1 in DIO mouse liver at 30 mg/kg, po after 7 hrs; assay type: organism-based; parameters: dose 30 mg/kg
[23] = molecular target: 11-beta-hydroxysteroid dehydrogenase 1 (Mus musculus) (UniProt P50172); assay: Inhibition of mouse 11beta-HSD1 in DIO mouse adipose tissue at 30 mg/kg, po after 7 hrs; assay type: organism-based; parameters: dose 30 mg/kg
[24] = molecular target: 11-beta-hydroxysteroid dehydrogenase 1 (Mus musculus) (UniProt P50172); assay: Inhibition of mouse 11beta-HSD1 in DIO mouse liver at 30 mg/kg, po after 1 hr; assay type: organism-based; parameters: dose 30 mg/kg
[25] = molecular target: 11-beta-hydroxysteroid dehydrogenase 1 (Mus musculus) (UniProt P50172); assay: Inhibition of mouse 11beta-HSD1 in DIO mouse brain at 30 mg/kg, po after 7 hrs; assay type: organism-based; parameters: dose 30 mg/kg
[26] = molecular target: 11-beta-hydroxysteroid dehydrogenase 1 (Mus musculus) (UniProt P50172); assay: Inhibition of mouse 11beta-HSD1 in DIO mouse brain at 30 mg/kg, po after 1 hr; assay type: organism-based; parameters: dose 30 mg/kg

T1 sequence (P28845 whole entry): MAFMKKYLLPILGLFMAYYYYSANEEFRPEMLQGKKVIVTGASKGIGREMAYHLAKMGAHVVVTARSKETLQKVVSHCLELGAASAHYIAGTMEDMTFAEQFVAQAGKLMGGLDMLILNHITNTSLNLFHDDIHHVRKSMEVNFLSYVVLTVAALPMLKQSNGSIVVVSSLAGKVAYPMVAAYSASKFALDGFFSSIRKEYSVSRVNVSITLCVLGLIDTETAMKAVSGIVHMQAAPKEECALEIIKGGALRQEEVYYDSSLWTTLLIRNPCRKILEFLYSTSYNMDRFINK

C[C@@H](C(=O)N[C@H]1C2CC3CC1C[C@](O)(C3)C2)N1CCN(c2ccc(C(F)(F)F)cn2)CC1 (stereo in doubt; (R)-22f)
IC50 [1]: 26 nM
Ki [2]: 5 nM
CLint scaled at 1 µM [3]: 16.7 mL/min/kg
Ki [4]: 4 nM

C[C@H](C(=O)N[C@H]1C2CC3CC1C[C@](O)(C3)C2)N1CC[C@@H](F)C1
IC50 [1]: 180 nM
IC50 [5]: > 100000 nM
IC50 [6]: > 100000 nM
Ki [2]: 9 nM
CLint scaled at 1 µM [3]: < 16.7 mL/min/kg
Ki [4]: 12 nM
CLint scaled at 1 µM [7]: < 100 mL/min/kg

O=C(CN1CCN(c2ccc(C(F)(F)F)cn2)CC1)NC1C2CC3CC(C2)CC1(O)C3 (racemic)
IC50 [1]: > 10000 nM
IC50 [5]: > 100000 nM
IC50 [6]: > 100000 nM
Ki [2]: 110 nM
CLint scaled at 1 µM [3]: 217 mL/min/kg
Ki [4]: 180 nM
CLint scaled at 1 µM [7]: 5130 mL/min/kg

CC(C)(C(=O)N[C@H]1C2CC3CC1C[C@](O)(C3)C2)N1CCN(c2ccc(C(F)(F)F)cn2)CC1
IC50 [5]: > 100000 nM
IC50 [6]: > 100000 nM
CLint scaled at 1 µM [3]: 100 mL/min/kg
CLint scaled at 1 µM [7]: 2170 mL/min/kg

CC(C(=O)N[C@H]1C2CC3CC1C[C@](O)(C3)C2)N1CC(Oc2ccccc2F)C1 (stereo partly specified)
Vd [8]: 1.2 L/kg
half-life [9]: 0.3 h
clearance [10]: 120 mL/min/kg
IC50 [6]: > 100000 nM
AUC (Mus musculus): 0.8 ug/hr.ml
Ki [2]: 7 nM
CLint scaled at 1 µM [3]: < 16.7 mL/min/kg
CLint scaled at 1 µM [7]: 383 mL/min/kg
CLint scaled at 1 µM [11]: 66.7 mL/min/kg
Ki [12]: 52 nM
bioavailability [13]: 58%
half-life [14]: 1 h
IC50 [15]: > 100000 nM

O=C(CN1CCN(c2ccc(Cl)cc2)CC1)NC1C2CC3CC(C2)CC1C3 (stereo unspecified)
Ki [2]: 21 nM
CLint scaled at 1 µM [3]: 583 mL/min/kg
CLint scaled at 1 µM [7]: 1050 mL/min/kg

O=C(CN1CCN(c2ccc(C(F)(F)F)cn2)CC1)N[C@H]1C2CC3CC1C[C@](O)(C3)C2
IC50 [1]: 130 nM
IC50 [5]: > 100000 nM
Vd [16]: 2.2 L/kg
half-life [17]: 1.3 h
IC50 [6]: > 100000 nM
Ki [2]: 34 nM
CLint scaled at 1 µM [3]: 16.7 mL/min/kg
clearance [18]: 23.3 mL/min/kg
Ki [4]: 8 nM
CLint scaled at 1 µM [7]: 683 mL/min/kg
bioavailability [19]: 65%
CLint scaled at 1 µM [11]: < 50 mL/min/kg
Ki [12]: 6 nM
AUC (Rattus norvegicus): 2.4 ug/hr.ml
IC50 [15]: > 100000 nM
half-life [20]: 1.4 h

CO[C@]12CC3C[C@](O)(CC(C1)C3NC(=O)C(C)(C)N1CCN(c3ccc(C(F)(F)F)cn3)CC1)C2 (stereo partly specified)
Ki [2]: 180 nM
CLint scaled at 1 µM [3]: < 16.7 mL/min/kg
CLint scaled at 1 µM [7]: 1000 mL/min/kg

O=C(CN1CCN(c2ccc(C(F)(F)F)cn2)CC1)NC1C2CC3CC(C2)CC1C3 (stereo unspecified)
Ki [2]: 51 nM
CLint scaled at 1 µM [3]: 167 mL/min/kg
CLint scaled at 1 µM [7]: 2370 mL/min/kg

CC(C(=O)N[C@H]1C2C[C@@]3(O)CC1C[C@@](O)(C2)C3)N1CCN(c2ccc(C(F)(F)F)cn2)CC1 (mixture of isomers)
Ki [2]: 4100 nM
CLint scaled at 1 µM [3]: < 16.7 mL/min/kg
CLint scaled at 1 µM [7]: < 100 mL/min/kg

CC(C(=O)N[C@H]1C2CC3CC1C[C@](O)(C3)C2)N1CCN(c2ccc(C(F)(F)F)cn2)CC1 (mixture of isomers)
IC50 [1]: 29 nM
Vd [8]: 1.6 L/kg
IC50 [5]: > 100000 nM
half-life [9]: 0.4 h
Vd [16]: 1 L/kg
clearance [10]: 55 mL/min/kg
half-life [17]: 1.6 h
IC50 [6]: > 100000 nM
AUC (Mus musculus): 1.9 ug/hr.ml
inhibition [21]: 51%
Ki [2]: 15 nM
CLint scaled at 1 µM [3]: 50 mL/min/kg
inhibition [22]: 9%
inhibition [23]: 16%
clearance [18]: 33.3 mL/min/kg
inhibition [24]: 36%
Ki [4]: 5 nM
CLint scaled at 1 µM [7]: 117 mL/min/kg
bioavailability [19]: 37%
inhibition [25]: 25%
CLint scaled at 1 µM [11]: 83.3 mL/min/kg
Ki [12]: 4 nM
bioavailability [13]: 65%
half-life [14]: 1 h
AUC (Rattus norvegicus): 1 ug/hr.ml
inhibition [26]: 37%
IC50 [15]: > 100000 nM
half-life [20]: 1 h
